Drawing on ChEMBL document CHEMBL1212708, “Sialic acid dependence in rotavirus host cell invasion” (Nat Chem Biol, 2009), this text covers Activity and inhibition for three molecules.

Activity calls are given as the source filed them. The calls are words filed in the database; no cut-off is given here.

Assay [1] has as its system Rotavirus. As to the kind of experiment: Binding affinity to sialidase-insensitive Rotavirus Wa VP8 protein at 0.46 mM by STD NMR spectral analysis.
The test system of assay [2] is Rotavirus. As to the kind of experiment: Binding affinity to […] Rotavirus CRW-8 VP8 at 1.2 mM by STD NMR spectrum.
Assay [3] deals with Rotavirus. Description: Binding affinity to sialidase-insensitive Rotavirus Wa VP8 at 3.5 mM by STD NMR spectrum.
Assay [4] relates to Rotavirus. Description: Binding affinity to […] Rotavirus CRW-8 VP8 at 3.5 mM by STD NMR spectrum.
For assay [5], the system named is MA104. As to the kind of experiment: Inhibition of Rotavirus CRW-8 VP8-mediated infectivity in monkey MA104 cells at 10 mM after 1 hr by immunofluorescence assay. The class given is cell-based.
Assay [6] concerns MA104. Description: Inhibition of Rotavirus CRW-8 VP8-mediated binding to monkey MA104 cells at 10 mM after 1 hr by immunofluorescence assay in presence of sialidase. The class given is cell-based.
Assay [7] concerns MA104. As to the kind of experiment: Inhibition of Rotavirus CRW-8 VP8-mediated infectivity in monkey MA104 cells at 10 mM after 1 hr by immunofluorescence assay in presence of sialidase. The class given is cell-based.
In assay [8] the test system is MA104. Description: Inhibition of Rotavirus Wa VP8-mediated infectivity in monkey MA104 cells at 10 mM after 1 hr by immunofluorescence assay in presence of sialidase. The class given is cell-based.
In assay [9] the test system is MA104. Description: Inhibition of Rotavirus CRW-8 VP8-mediated binding to monkey MA104 cells at 10 mM after 1 hr by immunofluorescence assay. The class given is cell-based.
Assay [10] relates to MA104. Description: Inhibition of Rotavirus Wa VP8-mediated binding to monkey MA104 cells at 10 mM after 1 hr by immunofluorescence assay in presence of sialidase. Format: cell-based.
Assay [11] concerns MA104. Description: Inhibition of Rotavirus Wa VP8-mediated binding to monkey MA104 cells at 10 mM after 1 hr by immunofluorescence assay. Format: cell-based.
For assay [12], the system named is MA104. As to the kind of experiment: Inhibition of Rotavirus Wa VP8-mediated infectivity in monkey MA104 cells at 10 mM after 1 hr by immunofluorescence assay. The class given is cell-based.

Turning to `CC(=O)N[C@H]1[C@@H](O[C@@H]2[C@H](O[C@]3(C(=O)O)C[C@H](O)[C@@H](NC(C)=O)[C@H]([C@H](O)[C@H](O)CO)O3)[C@@H](O)[C@H](O[C@H]3[C@H](O)[C@@H](O)C(O)O[C@@H]3CO)O[C@@H]2CO)O[C@H](CO)[C@H](O)[C@@H]1O[C@@H]1O[C@H](CO)[C@H](O)[C@H](O[C@]2(C(=O)O)C[C@H](O)[C@@H](NC(C)=O)[C@H]([C@H](O)[C@H](O)CO)O2)[C@H]1O` (some centres not stated), the result in assay [1] was inactive. The outcome in assay [2] was Active.
For `CC(=O)N[C@H]1[C@@H](O[C@@H]2[C@H](O[C@]3(C(=O)O)C[C@H](O)[C@@H](NC(C)=O)[C@H]([C@H](O)[C@H](O)CO)O3)[C@@H](O)[C@H](O[C@H]3[C@H](O)[C@@H](O)C(O)O[C@@H]3CO)O[C@@H]2CO)O[C@H](CO)[C@H](O)[C@@H]1O[C@@H]1O[C@H](CO)[C@H](O)[C@H](O)[C@H]1O` (some centres not stated), the outcome in assay [3] was Active. For the same molecule, in assay [4], the result was inactive.
In the case of `CO[C@]1(C(=O)O)C[C@H](O)[C@@H](NC(C)=O)[C@H]([C@H](O)[C@H](O)CO)O1`, the inhibition (in general, the relative decrease from the control value, in per cent) in [5] worked out at 52%; in assay [8], 26%; in [9], 35%; in assay [11], 45%. For the same molecule, the outcome in [6] and in [7] was inactive. The inhibition entry in assay [10] is “Active”. The inhibition entry in assay [12] is “inactive”.
